Active and inactive are the calls of the source. The calls are words filed in the database; no cut-off is given here.
Key:
[1] = target: T1, Broad substrate specificity ATP-binding cassette transporter ABCG2 (Homo sapiens, UniProt Q9UNQ0); assay: Reversal of ABCG2-mediated multidrug resistance in human S1-M1-80 cells assessed as potentiation of mitoxantrone-induced cytotoxicity at 5 uM pretreated with compound for 2 hrs followed by mitoxantrone challenge for 44 hrs by MTT assay; type: cell-based
T1 sequence (Q9UNQ0 whole entry): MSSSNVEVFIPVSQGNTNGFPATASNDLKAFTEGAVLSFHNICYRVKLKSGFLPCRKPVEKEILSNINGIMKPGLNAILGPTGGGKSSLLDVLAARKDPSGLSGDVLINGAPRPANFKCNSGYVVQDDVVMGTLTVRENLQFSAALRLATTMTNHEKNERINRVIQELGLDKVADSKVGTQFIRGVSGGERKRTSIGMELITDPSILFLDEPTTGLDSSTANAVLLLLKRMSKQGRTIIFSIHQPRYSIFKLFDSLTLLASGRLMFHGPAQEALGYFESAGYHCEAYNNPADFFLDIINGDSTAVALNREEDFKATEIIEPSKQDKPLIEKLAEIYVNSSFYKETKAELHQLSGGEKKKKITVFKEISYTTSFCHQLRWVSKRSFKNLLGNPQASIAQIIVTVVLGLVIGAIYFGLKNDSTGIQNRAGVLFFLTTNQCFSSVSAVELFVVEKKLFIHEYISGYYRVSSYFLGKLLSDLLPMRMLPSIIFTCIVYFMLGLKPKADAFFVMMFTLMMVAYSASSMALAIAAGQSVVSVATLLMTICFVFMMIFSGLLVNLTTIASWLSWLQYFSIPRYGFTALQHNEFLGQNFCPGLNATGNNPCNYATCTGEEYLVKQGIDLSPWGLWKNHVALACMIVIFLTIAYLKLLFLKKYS

[2] = target: T1, Broad substrate specificity ATP-binding cassette transporter ABCG2; assay: Reversal of ABCG2-mediated multidrug resistance in human NCI-H460/MX20 cells assessed as potentiation of mitoxantrone-induced cytotoxicity at 2.5 to 5 uM pretreated with compound for 2 hrs followed by mitoxantrone challenge for 44 hrs by MTT assay; type: cell-based
[3] = Cytotoxicity against human NCI-H460 cells assessed as inhibition of cell viability at 5 to 25 uM incubated for 2 hrs by MTT assay relative to control; type: cell-based; conditions: read-out: INH
[4] = Cytotoxicity against HEK293 cells transfected with pcDNA3.1 assessed as inhibition of cell viability at 5 to 25 uM incubated for 2 by MTT assay relative to control; type: cell-based; conditions: human, read-out: INH
[5] = Cytotoxicity against HEK293 cells harbouring ABCG2-482-G2 mutant assessed as inhibition of cell viability at 5 to 25 uM incubated for 2 hrs by MTT assay relative to control; type: ADME, cell-based; conditions: human, read-out: INH
Homo sapiens [6] = organism: Homo sapiens; assay: Effect on ABCG2 expression in human NCI-H460/MX20 cells at 5 uM incubated up to 72 hrs by Western blot analysis; type: functional, cell-based
[7] = target: T1, Broad substrate specificity ATP-binding cassette transporter ABCG2; assay: Competitive substrate activity at ABCG2 (unknown origin) expressed in High Five insect cell vesicle membrane assessed as stimulation of ATPase activity by PREDEASY ATPase assay
[8] = target: T1, Broad substrate specificity ATP-binding cassette transporter ABCG2; assay: Reversal of ABCG2 (unknown origin) expressed in HEK293 cells-mediated multidrug resistance assessed as potentiation of mitoxantrone-induced cytotoxicity at 2.5 to 5 uM pretreated for 2 hrs followed by mitoxantrone addition and measured after 44 hrs by MTT assay; type: cell-based; conditions: hek293, 44 h
ABCG2 = target: T2, ABCG2 (Homo sapiens, UniProt Q9UNQ0); assay: Competitive substrate activity at ABCG2 (unknown origin) expressed in High Five insect cell vesicle membrane assessed as stimulation of ATPase activity at 0.75 uM by PREDEASY ATPase assay relative to control; conditions: High Five insect cell vesicle membranes expressing ABCG2
T2 sequence (Q9UNQ0 whole entry): T1 sequence (Q9UNQ0 whole entry)

Homo sapiens [9] = organism: Homo sapiens; assay: Effect on ABCG2 internalization in human NCI-H460/MX20 cells at 5 uM incubated for 72 hrs by immunofluorescence analysis; type: functional, cell-based
[10] = target: T1, Broad substrate specificity ATP-binding cassette transporter ABCG2; assay: Reversal of ABCG2-mediated multidrug resistance in human NCI-H460/MX20 cells assessed as cisplatin-induced cytotoxicity at 5 uM pretreated with compound for 2 hrs followed by cisplatin challenge for 44 hrs by MTT assay; type: cell-based
[11] = Cytotoxicity against human NCI-H460/MX20 cells assessed as concentration that causes inhibition of cell viability by <=20% incubated for 24 hrs by MTT assay; type: cell-based
HEK293 [12] = assay: Reversal of ABCG2 482-G2 mutant (unknown origin) expressed in HEK293 cells-mediated multidrug resistance assessed as potentiation of mitoxantrone-induced cytotoxicity at 2.5 to 5 uM pretreated for 2 hrs followed by mitoxantrone addition and measured after 44 hrs by MTT assay; type: cell-based; conditions: Homo sapiens
[13] = Cytotoxicity against human NCI-H460/MX20 cells assessed as inhibition of cell viability incubated for 2 hrs by MTT assay; type: cell-based; conditions: NCI-H460/MX20, 2 h
HEK293 [14] = assay: Reversal of ABCG2 482-T7 mutant (unknown origin) expressed in HEK293 cells-mediated multidrug resistance assessed as potentiation of mitoxantrone-induced cytotoxicity at 2.5 to 5 uM pretreated for 2 hrs followed by mitoxantrone addition and measured after 44 hrs by MTT assay; type: cell-based; conditions: Homo sapiens
NCI-H460 [15] = assay: Cytotoxicity against human NCI-H460 cells assessed as concentration that causes inhibition of cell viability by <=20% incubated for 24 hrs by MTT assay; type: cell-based; conditions: nci-h460, 24 h
[16] = Cytotoxicity against HEK293 cells expressing wild type ABCG2-482-R2 assessed as inhibition of cell viability at 5 to 25 uM incubated for 2 hrs by MTT assay relative to control; type: ADME, cell-based; conditions: human, read-out: INH
[17] = target: T1, Broad substrate specificity ATP-binding cassette transporter ABCG2; assay: Reversal of ABCG2-mediated multidrug resistance in human NCI-H460/MX20 cells assessed as potentiation of mitoxantrone-induced cytotoxicity by measuring inhibition of cell proliferation at 10 uM pretreated for 2 hrs followed by mitoxantrone addition and measured after 44 hrs by MTT assay (reference value: 24 +/- 3%); type: cell-based
[18] = Cytotoxicity against human NCI-H460/MX20 cells assessed as inhibition of cell viability at 5 to 25 uM incubated for 2 hrs by MTT assay relative to control; type: cell-based; conditions: read-out: INH
[19] = Metabolic stability in human liver microsomes assessed as compound remaining at 100 uM incubated for 1 hr by HPLC analysis; type: ADME, Microsome; conditions: read-out: Stability
[20] = target: T1, Broad substrate specificity ATP-binding cassette transporter ABCG2; assay: Reversal of ABCG2-mediated multidrug resistance in human S1-M1-80 cells assessed as potentiation of doxorubicin-induced cytotoxicity at 5 uM pretreated with compound for 2 hrs followed by doxorubicin challenge for 44 hrs by MTT assay; type: cell-based
[21] = Cytotoxicity against human S1-M1-80 cells assessed as inhibition of cell viability at 5 to 25 uM incubated for 2 hrs by MTT assay relative to control; type: cell-based; conditions: read-out: INH
[22] = target: T1, Broad substrate specificity ATP-binding cassette transporter ABCG2; assay: Inhibition of ABCG2-mediated mitoxantrone efflux in human NCI-H460/MX20 cells assessed as increase in accumulation of [3H]MX at 5 uM incubated for 2 hrs followed by [3H]MX addition further incubated for 2 hrs by liquid scintillation counter relative to control; type: cell-based
[23] = Cytotoxicity against HEK293 cells harbouring ABCG2-482-T7 mutant assessed as inhibition of cell viability at 5 to 25 uM incubated for 2 hrs by MTT assay relative to control; type: ADME, cell-based; conditions: human, read-out: INH
[24] = target: T1, Broad substrate specificity ATP-binding cassette transporter ABCG2; assay: Reversal of ABCG2-mediated multidrug resistance in human NCI-H460/MX20 cells assessed as potentiation of mitoxantrone-induced cytotoxicity by measuring inhibition of cell proliferation pretreated for 2 hrs followed by mitoxantrone addition and measured after 44 hrs by MTT assay; type: cell-based
[25] = target: T1, Broad substrate specificity ATP-binding cassette transporter ABCG2; assay: Competitive substrate activity at ABCG2 (unknown origin) expressed in High Five insect cell vesicle membrane assessed as stimulation of ATPase activity up to 40 uM by PREDEASY ATPase assay relative to control
NCI-H460 [26] = assay: Cytotoxicity against human NCI-H460 cells assessed as inhibition of cell viability incubated for 2 hrs by MTT assay; type: cell-based; conditions: NCI-H460, 2 h, read-out: IC50
[27] = Cytotoxicity against human S1 cells assessed as inhibition of cell viability at 5 to 25 uM incubated for 2 hrs by MTT assay relative to control; type: cell-based; conditions: read-out: INH

Structure (SMILES): COc1ccc(C(=O)c2c[nH]c3ccc(OC)cc23)cc1
- Activity [1]: Active
- Activity [2]: Active
- cytotoxicity at 2 h, up to 25 µM [3]: < 20%
- cytotoxicity at up to 25 µM [4]: < 20%
- cytotoxicity at 2 h, up to 25 µM [5]: < 20%
- Activity (Homo sapiens [6]): inactive
- Activity [7]: Dose-dependent effect
- Activity [8]: Active
- Emax at 0.75 µM (ABCG2): 50%
- Activity (Homo sapiens [9]): inactive
- Activity [10]: Not Active
- Activity [11]: 10 µM
- Activity (HEK293 [12]): Active
- IC50 [13]: 66.9 µM
- Activity (HEK293 [14]): Active
- Activity (NCI-H460 [15]): 10 µM
- cytotoxicity at 2 h, up to 25 µM [16]: < 20%
- inhibition at 10 µM [17]: > 87%
- cytotoxicity at 2 h, up to 25 µM [18]: < 20%
- remaining at 1 h, 100 µM [19]: 78%
- Activity [20]: Active
- cytotoxicity at 2 h, up to 25 µM [21]: < 20%
- fold change (FC) [22]: 2.7
- cytotoxicity at 2 h, up to 25 µM [23]: < 20%
- inhibition (INH) [24]: Dose-dependent effect
- fold change (FC) [25]: 2.03
- IC50 (NCI-H460 [26]): > 100 µM
- cytotoxicity at 2 h, up to 25 µM [27]: < 20%
